Test results as given in PubChem BioAssay (NCI).
Where “and” joins values, the source holds several entries; their conditions need not be identical. Equal entries are not always repeated.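 How tested: cells in 96-well plates exposed to compound for 48 hours at five concentrations. The concentration for 50% growth inhibition is given as GI50. TGI denotes the concentration required for complete inhibition of growth.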

Tests used:
Test in all cases: DTP human tumour cell line panel, 48 h
[1] = system: ACHN renal
[2] = system: COLO 205 colon
[3] = system: K-562 leukemia
[4] = system: NCI-H226 lung
[5] = system: OVCAR-8 ovarian
[6] = system: SF-295 CNS
[7] = system: SK-OV-3 ovarian
[8] = system: SNB-75 CNS
[9] = system: U251 CNS
[10] = system: PC-3 prostate

| SMILES | TGI [1] | TGI [2] | TGI [3] | TGI [4] | TGI [5] | TGI [6] | TGI [7] | TGI [8] | TGI [9] | TGI [10] | GI50 [2] | GI50 [3] | GI50 [4] | GI50 [7] | GI50 [8] | GI50 [9] | GI50 [1] | GI50 [5] | GI50 [10] | GI50 [6] |
| --- | --- | --- | --- | --- | --- | --- | --- | --- | --- | --- | --- | --- | --- | --- | --- | --- | --- | --- | --- | --- |
| COC(=O)[C@@]1(O)CC(C)C=C1C=O (stereo partly drawn) | > 100 µM | > 100 µM | > 100 µM | > 100 µM | > 100 µM | > 100 µM | > 100 µM | > 100 µM | 38.4 µM |  |  |  |  |  |  |  |  |  |  |  |
| O=C(O)C1C(=O)Oc2c(cccc2[N+](=O)[O-])C1O (stereo not drawn) | > 100 µM | > 100 µM | > 100 µM | > 100 µM | > 100 µM | > 100 µM |  | > 100 µM | > 100 µM | > 100 µM |  |  |  |  |  |  |  |  |  |  |
| CCCCCCCCC(O)C#CC(N)=O (stereo not drawn) | 31 µM |  | 75.4 µM | 25.6 µM | 21.4 µM | > 100 µM |  | 17.5 µM | 20.9 µM |  |  |  |  |  |  |  |  |  |  |  |
| COC1=C2C[C@H](O)C(C)C[C@@]2(OC)OC1=O (stereo partly drawn) |  | > 100 µM | > 100 µM |  |  | > 100 µM | > 100 µM | > 100 µM | > 100 µM |  |  |  |  |  |  |  |  |  |  |  |
| CCO/C=C1\N=C(C(Cl)c2ccccc2)OC1=O (stereo not drawn) | > 100 µM | > 100 µM | > 100 µM | > 100 µM | > 100 µM | > 100 µM |  | > 100 µM |  |  |  |  |  |  |  |  |  |  |  |  |
| Cc1ccc(-c2cc(=O)c3cc(C)c(C)c(C(=O)O)c3o2)cc1 | > 100 µM | > 100 µM |  |  | > 100 µM | > 100 µM | > 100 µM | > 100 µM | > 100 µM |  |  |  |  |  |  |  |  |  |  |  |
| COc1ccc(OC)c(NCC#N)c1 | > 100 µM | > 100 µM | > 100 µM | > 100 µM | > 100 µM | > 100 µM | > 100 µM | > 100 µM | > 100 µM |  |  |  |  |  |  |  |  |  |  |  |
| COc1cc(C=O)c(-c2cc3c(cc2C2(C)OCCS2)OCO3)c(OC)c1OC (stereo not drawn) | > 99.1 µM | 16.1 µM | > 239 µM | 29.5 µM | > 75.1 µM | 48 µM | > 239 µM | 21.3 µM | 72 µM |  |  |  |  |  |  |  |  |  |  |  |
| Cc1ccc(C(=O)N2c3ccccc3N(C)n3cccc3C2CC(=O)O)cc1 (stereo not drawn) | > 100 µM | > 100 µM | > 100 µM | > 100 µM | > 100 µM | > 100 µM |  | > 100 µM |  |  |  |  |  |  |  |  |  |  |  |  |
| CCOC(=O)[C@H]1CSC[C@@H](C(=O)OC)N1 | > 100 µM | > 100 µM | > 100 µM |  | > 100 µM | > 100 µM | > 100 µM | > 100 µM | > 100 µM |  |  |  |  |  |  |  |  |  |  |  |
| O=C(O)C(C(=O)C(=O)C(C(=O)O)c1ccc(Cl)cc1)c1ccc(Cl)cc1 (stereo not drawn) | 12.8 µM | 18.8 µM | 10.7 µM | 16.4 µM | 6.23 µM | 20.8 µM | 18.2 µM | 8.89 µM | 12 µM |  |  |  |  |  |  |  |  |  |  |  |
| CCCCCCCC(=O)OCC1OC(n2cc(F)c(=O)[nH]c2=O)C(NC(=O)OCc2ccccc2)C(O)C1O (stereo not drawn) | > 100 µM | > 100 µM | > 100 µM |  | > 100 µM | > 100 µM | > 100 µM | > 100 µM | > 100 µM |  |  |  |  |  |  |  |  |  |  |  |
| O=c1cc(-c2ccccc2)[nH]c2c(Cl)cccc12 | > 100 µM | > 100 µM | > 100 µM | 81 µM | > 100 µM | 58.5 µM |  | 54.8 µM | > 100 µM |  |  |  |  |  |  |  |  |  |  |  |
| CC(=O)OC(C)(C)/C=C/C(=O)[C@](C)(O)[C@H]1[C@H](O)C[C@@]2(C)[C@@H]3CC=C4[C@@H](C[C@H](O)C(=O)C4(C)C)[C@]3(CO)C(=O)C[C@]12C | 0.882 µM and 0.844 µM |  | 29.5 µM | 0.776 µM and 0.293 µM | 23.8 µM | 0.772 µM and 1.64 µM |  | 0.375 µM and 0.211 µM | 0.592 µM and 1.52 µM |  | 0.159 µM | 0.164 µM | 0.29 µM | 0.333 µM | 0.0529 µM | 0.267 µM |  |  |  |  |
| C/C(CC(=O)Nc1ccc(Cl)cc1)=N\NC(=O)C[n+]1ccccc1 | > 100 µM | > 100 µM | > 100 µM | > 100 µM | > 100 µM | > 100 µM | > 100 µM | > 100 µM | > 100 µM |  |  |  |  |  |  |  |  |  |  |  |
| NC(CC(=O)Nc1ccc(Cl)cc1)=Nc1ccccc1 | > 100 µM | > 100 µM | > 100 µM | > 100 µM | > 100 µM | > 100 µM | > 100 µM | > 100 µM | > 100 µM |  |  |  |  |  |  |  |  |  |  |  |

| SMILES | TGI [1] | TGI [2] | TGI [3] | TGI [4] | TGI [5] | TGI [6] | TGI [7] | TGI [8] | TGI [9] | TGI [10] | GI50 [2] | GI50 [3] | GI50 [4] | GI50 [7] | GI50 [8] | GI50 [9] | GI50 [1] | GI50 [5] | GI50 [10] | GI50 [6] |
| --- | --- | --- | --- | --- | --- | --- | --- | --- | --- | --- | --- | --- | --- | --- | --- | --- | --- | --- | --- | --- |
| O=[P+](O)c1cc2ccccc2c2ccccc12 |  | > 100 µM | > 100 µM | > 100 µM | > 100 µM | > 100 µM | > 100 µM | > 100 µM | > 100 µM |  |  |  |  |  |  |  |  |  |  |  |
| O=C1[C@H]2ON(c3ccccc3)C(c3ccccc3F)[C@H]2C(=O)N1c1ccc(Cc2ccc(N3C(=O)[C@@H]4ON(c5ccccc5)C(c5ccccc5F)[C@@H]4C3=O)cc2)cc1 (stereo partly drawn) | > 100 µM | > 100 µM | > 100 µM | > 100 µM |  | > 100 µM | > 100 µM | > 100 µM | > 100 µM |  |  |  |  |  |  |  |  |  |  |  |
| COc1c2c(c(CC=C(C)C)c3oc(=O)c(-c4ccc(O)cc4)c(O)c13)OC(C)(C)C=C2 | 92.7 µM | 40.2 µM | > 100 µM | 62 µM | > 100 µM | > 100 µM |  |  | 27.8 µM | > 100 µM |  |  |  |  |  |  |  |  |  |  |
| COc1cc([C@H]2c3cc4c(cc3[C@H](NCc3ccc([N+](=O)[O-])cc3)C3COC(=O)[C@H]32)OCO4)cc(OC)c1O (stereo partly drawn) | 2.32 µM | > 43.9 µM | > 100 µM | 1.68 µM | 7.62 µM | 5.14 µM | > 24.6 µM | 6.6 µM | 3.26 µM |  |  |  |  |  |  |  |  |  |  |  |
| O=c1cc(-c2ccccc2)nc(/C=C(\O)c2ccncc2)n1-c1ccccc1 | > 100 µM | > 100 µM | > 100 µM | > 100 µM | > 100 µM | > 100 µM | > 100 µM | > 100 µM | > 100 µM |  |  |  |  |  |  |  |  |  |  |  |
| CN1CCN(C(=O)c2c(NC(=O)NS(=O)(=O)c3ccccc3)sc3c2CCCCC3)CC1 | > 100 µM |  | > 100 µM | > 100 µM | > 100 µM | > 100 µM |  |  |  | > 100 µM |  | 33.6 µM | 33.1 µM |  |  |  | 30.7 µM | 53.5 µM | 30.6 µM | 57.2 µM |
| O=C(Nc1ccc2[nH]c(C(=O)N3CC(CCl)c4c3cc([N+](=O)[O-])c3ccccc43)cc2c1)c1cc2ccccc2o1 (stereo not drawn) |  | > 1100 µM |  | > 1100 µM | > 1100 µM | > 1100 µM | > 1100 µM |  | > 1100 µM |  | > 1100 µM |  | > 1100 µM | > 1100 µM |  | > 1100 µM |  | > 1100 µM |  |  |
| CCOc1ccccc1N1C(=O)C(=O)C(c2nc3ccccc3o2)/C(=N\N)C1=O (stereo not drawn) | > 100 µM | > 100 µM | > 100 µM | > 100 µM | > 100 µM | > 100 µM | > 100 µM | > 100 µM | > 100 µM |  |  |  |  |  |  |  |  |  |  |  |
| CSc1nc(SC)c2c(C(N)=S)[nH]nc2n1 | 74.7 µM | 35.7 µM | 78.9 µM | 62.6 µM | > 100 µM | 48.1 µM | 70.5 µM | 76.5 µM | 46.1 µM |  |  |  |  |  |  |  |  |  |  |  |
| CC(C)(c1ccc(Oc2ccc(C#N)c(C#N)c2)cc1)c1ccc(Oc2ccc(C#N)c(C#N)c2)cc1 | > 100 µM | > 100 µM | > 100 µM |  | > 100 µM | > 100 µM | > 100 µM | 89.2 µM | > 100 µM |  | > 100 µM | > 100 µM |  | > 100 µM |  | > 100 µM | > 100 µM | > 100 µM |  | > 100 µM |
| CC1=C(C(=O)Nc2ccc([N+](=O)[O-])cc2)C(c2ccccc2O)C(C(=O)Nc2ccc([N+](=O)[O-])cc2)=C(C)N1 | 58 µM | 40.8 µM | 74.2 µM | 46.9 µM | > 100 µM | 72.2 µM | 94.7 µM | 89 µM | 61.1 µM |  |  |  |  |  |  |  |  |  |  |  |
| CCOC(=O)c1cc2c(cn1)[nH]c1cccc(N)c12 | > 100 µM | > 100 µM | > 100 µM |  | > 100 µM | > 100 µM |  | > 100 µM | > 100 µM |  |  |  |  |  |  |  |  |  |  |  |
| CC1(C)CCC[C@]2(C)c3cc(O)ccc3CC[C@@H]12 | 33.5 µM | 46 µM | 29.5 µM | 35.4 µM | 41.1 µM | 44.6 µM |  | 27.5 µM | 29.1 µM | 30.2 µM | 20.4 µM | 10.9 µM | 18.2 µM |  | 12.4 µM | 14.6 µM | 18.1 µM | 21.7 µM | 15.8 µM | 20.6 µM |
| Nc1nc(NC2C=C(CO)C(O)C2O)c([N+](=O)[O-])c(=O)[nH]1 (stereo not drawn) | > 100 µM | > 100 µM | > 100 µM | > 100 µM | > 100 µM | > 100 µM | > 100 µM | > 100 µM | > 100 µM |  |  |  |  |  |  |  |  |  |  |  |
| CCCCN=C(NC#N)N(Cc1ccccc1)Cc1ccccc1 | 98.8 µM | 32.5 µM | 88.1 µM | > 100 µM | > 100 µM | 63.2 µM | 87.6 µM | > 100 µM | 81.3 µM |  |  |  |  |  |  |  |  |  |  |  |
| CC(C)(O)[C@@H]1CC[C@@]2(C)CCC[C@H](O)[C@H]2C1 | > 100 µM | > 100 µM | > 100 µM | > 100 µM | > 100 µM | > 100 µM | > 100 µM | > 100 µM | > 100 µM |  |  |  |  |  |  |  |  |  |  |  |
